Values joined by “and” are separate entries in the source; they are usually repeats but may differ in a detail not shown here. Equal entries are not always repeated.
Assays:
[1] = Growth enhancement and feed efficiency in sheep given an implant containing test compound (six weeks); type: in vivo, sheep (Wether lambs); details: for Average 6-Week Feed/Gain per Pen, AV. / Average 6-Week Weight Gain (kg.)/Lamb, AV.: average of 6 replications; for Average 6-Week Feed/Gain per Pen / Average 6-Week Weight Gain (kg.)/Lamb: replications 1 to 6
From the text: To determine the effect of a 4,5,6,7-tetrahydrobenzo[b]thien-4-ylurea compound on sheep, Wether lambs are randomly allotted to pens in groups of six. The sheep are weighed and permitted food and water ad libitum. The feed is weighed daily, and uneaten feed from the previous day is collected and weighed. Test lambs receive the same unmedicated diet as control animals, but test animals receive one or more subcutaneous implants containing test compound at the base of the ear. The formulation of the implant used is given below. At the end of the six-week treatment period, the lambs are again weighed, and total feed consumed is calculated.
In these tests, six replicates of six lambs each per treatment are used and each animal receives from about 11 mg. to 105 mg. of test compound.

[2] = Mouse Growth Regulant Tests (12-day weight gain over controls, compound in diet); type: in vivo, CFI female mice; details: Mus musculus, feed or water, 288 h; for change in vivo at 200 ppm: 200 ppm in diet; for change in vivo at 400 ppm: 400 ppm in diet
Method: CFI female mice from Carworth Farms are received when they are six weeks old. They are housed ten to a cage in air-conditioned rooms (72° F. to 76° F.) with automatically controlled lights, 14 hours on and 10 hours off. The basal diet used in these studies is Purina Laboratory Chow (see description below), which is supplied ad libitum. Water is also allowed ad libitum.
Thirteen days after arrival, the mice are weighed in groups of ten and assigned at random to the different treatments. Twelve days later the mice are weighed again and the experiment terminated. At least three cages (30 mice) of untreated controls are included in each test. Test data are provided in Tables VI, VII, VIII, and IX below wherein data are reported as percent weight gain over controls. Unless otherwise indicated in these tables, all compounds tested were dl-racemic mixtures. The following is a description of the diet to which the growth promoting compounds were added.

[3] = Chick tests: growth promotion and feed/gain, 13 days, compound in basal diet; type: in vivo, chicks; details: for Average 13-day Chick/Gain (g), AV. / Average 13-day Feed/Gain, AV.: average of 4 experiments; for Average 13-day Chick/Gain / Average 13-day Feed/Gain: experiments 1928, 1929, 1930, 1931; for Percent Improvement (13-day chick gain) / Percent Improvement (13-day feed/gain): vs control
Method: The following tests were conducted to evaluate the ability of 4,5,6,7-tetrahydrobenzo[b]thien-4-ylurea to promote growth in chicks.
In these tests day-old chicks are placed in heated cages and given feed and water ad libitum. In each test there are 5 male and 5 female chicks per cage and three cages per treatment are used. Treatments consist of a basal diet plus 1,3 or 9 ppm. of test compound. The chicks are weighed at the beginning and end of the experiment. Feed consumption is determined for the experimental period which is 13 days beginning when the chicks are one day old.

[4] = Growth enhancement and feed efficiency improvement in sheep fed levels of test compounds (six weeks); type: in vivo, sheep (Wether lambs); details: for Average Daily Gain (kg)/Lamb, av. / Six-Week Feed/Gain, av.: average of 5 replications; for Average Daily Gain (kg)/Lamb / Six-Week Feed/Gain: replications 1 to 5
From the text: To determine the effect of feeding experimental compounds on sheep performance, Wether lambs are randomly allotted to pens in groups of six. The sheep are weighed and permitted feed and water ad libitum. The feed is weighed daily, and uneaten feed from the previous day is collected and weighed. Test lambs receive the same diet as control animals but with the addition of experimental compound at a concentration of either 15 or 60 ppm. At the end of the six-week treatment period, the lambs are again weighed, and total feed is calculated.
In these tests, five replicates of six lambs each per treatment are used.

NC(=O)NC1CCCc2sccc21 (stereo not shown) [4,5,6,7-tetrahydrobenzo[b]thien-4-ylurea]
improvement of feed utilization over untreated controls ([1]; 11 mg. or 99 mg. implanted, six weeks): about 5% | increase in weight gain over untreated controls ([1]; 11 mg. or 99 mg. implanted, six weeks after implantation): ~10% | Average 6-Week Feed/Gain per Pen, AV. ([1]; 1 drug implant): 7.57 | Average 6-Week Weight Gain (kg.)/Lamb, AV. ([1]; 1 drug implant): 8.86 kg | Average 6-Week Feed/Gain per Pen ([1]; 1 drug implant): 6.63 and 6.58 and 7.41 and 8.21 and 8.05 and 8.49 | Average 6-Week Weight Gain (kg.)/Lamb ([1]; 1 drug implant): 11.25 kg and 9.32 kg and 9.20 kg and 8.63 kg and 8.05 kg and 6.68 kg | Average 6-Week Feed/Gain per Pen, AV. ([1]; 9 drug implants): 7.49 | Average 6-Week Weight Gain (kg.)/Lamb, AV. ([1]; 9 drug implants): 8.69 kg | Average 6-Week Feed/Gain per Pen ([1]; 9 drug implants): 6.51 and 6.75 and 7.80 and 8.38 and 7.56 and 7.97 | Average 6-Week Weight Gain (kg.)/Lamb ([1]; 9 drug implants): 10.83 kg and 9.60 kg and 8.75 kg and 7.20 kg and 8.53 kg | change in vivo at 50 ppm ([2]; Table VI, 50 ppm in diet): 50.1% | change in vivo at 200 ppm ([2]; Table VI): 134% | change in vivo at 400 ppm ([2]; Table VI): 120% | Average 13-day Chick/Gain (g), AV. ([3]; 1 ppm): 189 g | Average 13-day Feed/Gain, AV. ([3]; 1 ppm): 1.46 | Average 13-day Chick/Gain ([3]; 1 ppm): 181 g and 193 g and 182 g and 200 g | Average 13-day Feed/Gain ([3]; 1 ppm): 1.48 and 1.45 and 1.49 and 1.44 | Percent Improvement (13-day chick gain) ([3]; 1 ppm): 3.3% | Percent Improvement (13-day feed/gain) ([3]; 1 ppm): 2.7% | Average 13-day Chick/Gain (g), AV. ([3]; 3 ppm): 195 g | Average 13-day Feed/Gain, AV. ([3]; 3 ppm): 1.43 | Average 13-day Chick/Gain ([3]; 3 ppm): 199 g and 186 g and 197 g and 198 g | Average 13-day Feed/Gain ([3]; 3 ppm): 1.47 and 1.40 and 1.44 | Percent Improvement (13-day chick gain) ([3]; 3 ppm): 6.6% | Percent Improvement (13-day feed/gain) ([3]; 3 ppm): 4.7% | Average 13-day Chick/Gain (g), AV. ([3]; 9 ppm): 193 g | Average 13-day Feed/Gain, AV. ([3]; 9 ppm): 1.44 | Average 13-day Chick/Gain ([3]; 9 ppm): 190 g and 198 g and 191 g | Average 13-day Feed/Gain ([3]; 9 ppm): 1.45 and 1.46 and 1.40 | Percent Improvement (13-day chick gain) ([3]; 9 ppm): 5.5% | Percent Improvement (13-day feed/gain) ([3]; 9 ppm): 4.0% | Average Daily Gain (kg)/Lamb, av. ([4]; 15 ppm in feed): 0.186 kg | Six-Week Feed/Gain, av. ([4]; 15 ppm in feed): 6.611 | Average Daily Gain (kg)/Lamb ([4]; 15 ppm in feed): 0.190 kg and 0.187 kg and 0.186 kg and 0.174 kg and 0.195 kg | Six-Week Feed/Gain ([4]; 15 ppm in feed): 6.777 and 6.174 and 6.158 and 7.626 and 6.319 | Average Daily Gain (kg)/Lamb, av. ([4]; 60 ppm in feed): 0.208 kg | Six-Week Feed/Gain, av. ([4]; 60 ppm in feed): 6.148 | Average Daily Gain (kg)/Lamb ([4]; 60 ppm in feed): 0.211 kg and 0.250 kg and 0.200 kg and 0.193 kg and 0.189 kg | Six-Week Feed/Gain ([4]; 60 ppm in feed): 6.250 and 5.539 and 6.040 and 6.507 and 6.403

NC(=O)NC1CCC(=O)c2sccc21 (stereo not shown) [Compound B, 4,5,6,7-tetrahydro-7-oxobenzo[b]thien-4-ylurea]
Average Daily Gain (kg)/Lamb, av. ([4]; 15 ppm in feed): 0.202 kg | Six-Week Feed/Gain, av. ([4]; 15 ppm in feed): 6.216 | Average Daily Gain (kg)/Lamb ([4]; 15 ppm in feed): 0.187 kg and 0.208 kg and 0.218 kg and 0.186 kg and 0.210 kg | Six-Week Feed/Gain ([4]; 15 ppm in feed): 6.785 and 6.067 and 5.344 and 6.795 and 6.089 | Average Daily Gain (kg)/Lamb, av. ([4]; 60 ppm in feed): 0.208 kg | Six-Week Feed/Gain, av. ([4]; 60 ppm in feed): 5.151 | Average Daily Gain (kg)/Lamb ([4]; 60 ppm in feed): 0.216 kg and 0.207 kg and 0.237 kg and 0.189 kg and 0.190 kg | Six-Week Feed/Gain ([4]; 60 ppm in feed): 6.116 and 6.263 and 5.144 and 6.723 and 6.506

N#CCNC(=O)NC1CCCc2sccc21 (stereo not shown) [Table VI: O,H,H,H,H,CH2CN]
change in vivo at 400 ppm ([2]; Table VI): 12%

COC(=O)NNC(=O)NC1CCCc2sccc21 (stereo not shown) [Table VI: O,H,H,H,H,NHCO2CH3]
change in vivo at 400 ppm ([2]; Table VI): 18%

C=CCNC(=S)NC1CCCc2sccc21 (stereo not shown) [Table VI: S,H,H,H,H,CH2CHCH]
change in vivo at 400 ppm ([2]; Table VI): 60%

NC(=O)NC1CCC(O)c2sccc21 (mixture of isomers) [Table VIII: O,H,H (mixture of dextrorotatory diastereomers, 62% isomer B)]
change in vivo at 200 ppm ([2]; Table VIII): 13.5%

O=C(Nc1ccc([N+](=O)[O-])cc1)NC1CCCc2sccc21 (stereo not shown)
change in vivo at 400 ppm ([2]; Table VI): 9%

— US4036979A, “Compositions containing 4,5,6,7-tetrahydrobenz[b]thien-4-yl-ureas or derivatives and methods of enhancing growth rate” (American Cyanamid Company, priority 1976, dated 1977)
